We go through one compound from patent publication US8193252B1, “Mesoprogestins (progesterone receptor modulators) for the treatment and prevention of benign hormone dependent gynecological disorders” (Bayer Pharma AG, priority 1999, dated 2012).

Assay [1] addresses T1, GR (Homo sapiens, UniProt P04150).
T1 sequence (P04150 1-777): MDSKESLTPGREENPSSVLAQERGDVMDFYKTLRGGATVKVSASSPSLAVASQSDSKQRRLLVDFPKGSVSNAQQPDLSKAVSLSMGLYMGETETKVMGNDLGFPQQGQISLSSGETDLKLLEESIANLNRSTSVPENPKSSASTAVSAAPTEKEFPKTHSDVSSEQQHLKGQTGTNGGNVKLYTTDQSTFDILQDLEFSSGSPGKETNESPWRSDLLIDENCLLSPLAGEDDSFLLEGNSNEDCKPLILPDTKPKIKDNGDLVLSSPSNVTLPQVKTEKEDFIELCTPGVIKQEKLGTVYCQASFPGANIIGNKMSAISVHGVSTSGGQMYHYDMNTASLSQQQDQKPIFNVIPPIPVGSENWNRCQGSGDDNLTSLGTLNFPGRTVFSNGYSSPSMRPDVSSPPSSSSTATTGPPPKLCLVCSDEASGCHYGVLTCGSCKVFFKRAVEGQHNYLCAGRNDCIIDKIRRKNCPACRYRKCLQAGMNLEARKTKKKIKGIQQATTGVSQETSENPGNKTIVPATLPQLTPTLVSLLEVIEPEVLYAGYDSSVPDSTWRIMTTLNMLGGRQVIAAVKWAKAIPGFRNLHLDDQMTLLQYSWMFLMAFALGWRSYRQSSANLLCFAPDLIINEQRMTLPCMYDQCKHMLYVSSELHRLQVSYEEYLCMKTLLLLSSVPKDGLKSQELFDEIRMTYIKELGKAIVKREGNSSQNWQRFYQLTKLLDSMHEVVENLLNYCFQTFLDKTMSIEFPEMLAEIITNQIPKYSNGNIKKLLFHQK
Kind of assay: Relative binding activity (RBA) at GR, dexamethasone = 100%. The conditions noted are these: by Kaufmann.

In assay [2] the test system is pregnant rats. Kind of assay: Abortifacient activity in pregnant rats. The assay is classed as in vivo, rat. The conditions noted are these: s.c.; treatment days 5-7 of pregnancy, autopsy day 9; * SAS, probit procedure. The source says: (§1) The guinea pig is considered as relevant model of human gestation and parturition (Elger W, Fähnrich M, Beier S, Quing S S, Chwalisz K (1987). Endometrial and myometrial effects of progesterone antagonists in pregnant guinea pigs. Am J Obstet Gynecol 157: 1065-1074; Elger W, Neef G, Beier S, Fähnrich M, Gründel M, Heermann J, Malmendier A, Laurent D, Puri C P, Singh M M, Hasan S H, Becker H (1992). Evaluation of antifertility activities of antigestagens in animal model. In: Puri C P and Van Look P F A (eds), Current Concepts in Fertility Regulation and Reproduction. Wiley Eastern Limited, New Delhi, pp. 303-328; Elger W, Faehnrich M, Beier S, Qing S S, Chwalisz K (1986). Mechanism of action of progesterone antagonists in pregnant guinea pigs. Contraception 6: 47-62; Elger W, Chwalisz K, Faehnrich M, Hasan S H, Laurent D, Beier S, Ottow E, Neef G, Garfield R E (1990). Studies on labor-conditioning and labor-inducing effects of antiprogesterones in animal model. In: Garfield R E (eds), Norwell, pp. 153-175.) The mechanism of abortion of antiprogestins in this species is the initiation of labor and finally the expulsion of the conceptus. Abortifacient effects in the rat during very early pregnancy reflect inhibitory effects on nidation rather than initiation of uterine contractions. Studies in the rat model lead to “overestimation” of the potential of antiprogestins to terminate pregnancy in humans. Conversely, in the guinea pig model, irrespective of the antiprogestin doses, there were high rates of ongoing pregnancies similar to the situation in humans (Elger et al., Current Concepts in Fertility Regulation and Reproduction cited above). Furthermore, in both humans and guinea pigs, there is a strong synergism between antiprogestins and prostaglandins with respect the induction of labor (see the articles cited above and Elger W, Beier S (1983). Prostaglandine and Antigestagene für den Schwangerschaftsabbruch (Prostaglandins and antigestagens for pregnancy termination). German Patent DE 3337450 12; Van Look P, Bygdeman M (1989). Antiprogestational steroids: a new dimension in human fertility regulation. Oxford reviews of reproductive medicine 11: 2-60).

Assay [3] relates to pregnant guinea pigs. Kind of assay: Abortifacient / labor inducing activity in pregnant guinea pigs. The format is in vivo, guinea pig. Here is the method: In the guinea pig model which allows a good prediction of the effects in humans with respect to the abortifacient activity (Elger W, Beier S., Chwalisz K, Fähnrich M, Hasan S H, Henderson D, Neef G, Rohde R (1986): Studies on the mechanism of action of progesterone antagonists. J Steroid Biochem 25: 835-845) the mesoprogestins J 867, J 912, J 956, J 1042 lead up to 100 mg/kg/day to a maximal abortion rate of 20%.
as §1
Pregnant guinea pigs were treated on days 43 and 44 of pregnancy and observed until day 50 of gestation. For the effects of various treatments see table 1 and FIG. 2. It is typical for this model that expulsions occur with a delay of several days after treatment. It can be seen that Mesoprogestins have a much reduced abortifacient activity compared to RU486. […] The differences with respect to abortifacient activity seem qualitative ones. It is not possible to overcome the low abortifacient activity of a Mesoprogestin by the use of a higher dose.
FIG. 2 is graphs showing data on the assessment on cumulative rate of abortion until day 50 in guinea pigs treated on days 43 and 44 of pregnancy.

Assay [4] deals with T2, progesterone receptor (PR) (Oryctolagus cuniculus, UniProt P06186).
T2 construct: effects of PR-modulators in the uterus of estrogen primed immature rabbits (McPhail test); from tissue; host or cells: uterus (endometrium) of estradiol-primed juvenile rabbits, in vivo
T2 sequence (P06186 1-930): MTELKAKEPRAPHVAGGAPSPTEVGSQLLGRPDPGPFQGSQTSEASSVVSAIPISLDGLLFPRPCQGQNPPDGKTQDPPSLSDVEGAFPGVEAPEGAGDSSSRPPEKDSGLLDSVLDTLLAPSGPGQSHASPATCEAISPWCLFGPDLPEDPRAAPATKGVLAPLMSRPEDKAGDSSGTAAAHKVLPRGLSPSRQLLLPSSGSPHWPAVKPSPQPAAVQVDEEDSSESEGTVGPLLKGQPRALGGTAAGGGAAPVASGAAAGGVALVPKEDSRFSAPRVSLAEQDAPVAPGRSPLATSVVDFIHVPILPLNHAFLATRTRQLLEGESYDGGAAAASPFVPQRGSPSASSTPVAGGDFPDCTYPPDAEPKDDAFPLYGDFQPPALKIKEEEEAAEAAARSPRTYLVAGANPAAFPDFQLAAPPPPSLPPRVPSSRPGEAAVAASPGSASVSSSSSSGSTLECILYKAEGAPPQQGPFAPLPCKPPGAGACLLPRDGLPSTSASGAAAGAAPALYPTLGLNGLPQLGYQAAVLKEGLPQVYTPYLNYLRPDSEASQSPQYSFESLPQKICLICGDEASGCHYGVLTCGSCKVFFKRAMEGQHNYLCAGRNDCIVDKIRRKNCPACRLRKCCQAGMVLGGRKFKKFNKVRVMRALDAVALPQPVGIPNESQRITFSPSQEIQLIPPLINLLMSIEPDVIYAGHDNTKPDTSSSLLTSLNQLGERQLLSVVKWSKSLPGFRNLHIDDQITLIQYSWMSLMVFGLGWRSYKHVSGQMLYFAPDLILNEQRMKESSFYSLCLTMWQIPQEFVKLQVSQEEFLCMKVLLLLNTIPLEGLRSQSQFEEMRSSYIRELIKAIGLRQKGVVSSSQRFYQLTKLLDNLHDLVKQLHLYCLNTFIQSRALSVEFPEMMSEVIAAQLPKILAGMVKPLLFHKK
Kind of assay: McPhail test, PR antagonistic (antiprogestagenic) activity in estradiol-primed juvenile rabbits in the presence of progesterone. The assay is classed as in vivo. The conditions noted are these: 4 days s.c., in the presence of progesterone 1 mg/rabbit s.c. Here is the method: The capacity of mesoprogestins to antagonize progesterone function is also tested in the McPhail test using a progesterone dose which induces a McPhail score ranging between 3 and 4.
The PR antagonistic and agonistic properties of mesoprogestins were assessed in estrogen-primed rabbits in the McPhail test according to Selye (Textbook of Endocrinology, 1947, pp. 345-346).

`CC#C[C@]1(O)CC[C@H]2[C@@H]3CCC4=CC(=O)CCC4=C3[C@@H](c3ccc(N(C)C)cc3)C[C@@]21C` [RU 486, mifepristone, reference compound]: the “RBA (%) GR” value in assay [1] came to 685%. Further, the “abortifacient activity ED50, rat” value in assay [2] is recorded as 0.98* mg/animal/day. In addition, in assay [3] (s.c., treatment day 43-44 of pregnancy, autopsy day 50), the “abortifacient activity ED50, guinea pig” value was 3.8 mg/animal/day. Also, in assay [3] (treated on days 43 and 44 of pregnancy, observed until day 50), the “ranking of abortifacient activity” value was “RU486>J956>J867, J912>J1042”. In addition, the “dose of first antiprogestagenic effect” value in assay [4] is on record as 0.3-1 mg/rabbit.
